The record followed here is paper PMC6792352, “Limited Chemical Structural Diversity Found to Modulate Thyroid Hormone Receptor in the Tox21 Chemical Library” (Environmental Health Perspectives, 2019).

The nature of this data set: in vitro. The settings on record: rat, gh3-tre-luc cells.

Counter-ions that a name gives are not always drawn.

In general, CC50 refers to the concentration at which the toxic effect on the cells reaches its halfway point. Low values mean greater toxicity to the cells, high ones lower toxicity to the cells. For `CON(C)C(=O)Nc1ccc(Cl)cc1` [Monolinuron], the CC50 at 24 h (AC50 (uM) modified / 1000, Tox21_110001=Tox21_301360, viability, 1 nM T3 present, 24 h) was > 90 µM. For the compound `CC(C)c1ccc(C(C)C)cc1` [1,4-Diisopropylbenzene], under “AC50 (uM) modified / 1000”, the CC50 at 24 h is > 90 µM. Consider `CCN1CCc2nc(N)oc2CC1` [Azepexole hydrochloride], for which the CC50 at 24 h (AC50 (uM) modified / 1000) was > 50 µM.

`Cc1c(O)cc2c(c1C)O[C@](C)(CCC[C@H](C)CCC[C@H](C)CCCC(C)C)CC2` [(+)-gamma-Tocopherol]: the CC50 at 24 h (AC50 (uM) modified / 1000) is > 50 µM. Same read-out and setting: to `O=C(O)c1ccc(S(=O)(=O)N(Cl)Cl)cc1` [Halazone] belongs > 90 µM; to `CCOC(=O)CC1(C)OCC(C)O1` (stereo not drawn) [Ethyl 2,4-dimethyl-1,3-dioxolane-2-acetate], > 90 µM. On the same count and under the same terms, then `O=C(O)CP(=O)(O)O` [Phosphonoacetic acid], with > 50 µM; and `COc1cc(C(=O)OC(COCCC(C)C)CN2CCOCC2)cc(OC)c1OC` (stereo not drawn) [Amoproxan], with > 50 µM. As to `NC(=O)O` [Ammonium carbamate], the CC50 at 24 h (AC50 (uM) modified / 1000, Tox21_110001=Tox21_302509, viability, 1 nM T3 present, 24 h) is > 90 µM. Take `CCS(=O)(=O)CCn1c([N+](=O)[O-])cnc1C` [Tinidazole]: the CC50 at 24 h (AC50 (uM) modified / 1000) was > 20 µM.

For the compound `C=C(C)C#N` [Methacrylonitrile], the CC50 at 24 h runs as follows: (AC50 (uM) modified / 1000, Tox21_110001=Tox21_201354, viability, 1 nM T3 present, 24 h) > 100 µM; (AC50 (uM) modified / 1000, Tox21_110001=Tox21_303172, viability, 1 nM T3 present, 24 h) > 90 µM. For the compound `O=C(O)CCC(=O)c1ccc(-c2ccccc2)cc1` [Fenbufen], the CC50 at 24 h (AC50 (uM) modified / 1000) is > 20 µM. `C[C@H](CCCC(C)(C)O)[C@H]1CC[C@H]2[C@@H]3CC=C4C[C@@H](O)CC[C@]4(C)[C@H]3CC[C@]12C` [25-Hydroxycholesterol]: the CC50 at 24 h (AC50 (uM) modified / 1000) is > 50 µM. In turn, `CN1CCN(CCCN2c3ccccc3Sc3ccc(Cl)cc32)CC1` [Prochlorperazine dimaleate] displayed a CC50 at 24 h (AC50 (uM) modified / 1000) of 5.73 µM. Same read-out and setting: then `COC(=O)c1cccnc1` [Methyl nicotinate], with > 90 µM. Same read-out and setting: to `OC(c1ccc(F)cc1)(c1cncnc1)c1ccccc1Cl` (stereo not drawn) [Nuarimol] belongs > 90 µM; to `C=CC(=O)NCOCCCC` [N-(Butoxymethyl)acrylamide], > 100 µM; to `O=S(=O)(O)c1cc(O)c2ccc(Nc3ccccc3)cc2c1` [4-Hydroxy-7-(phenylamino)naphthalene-2-sulfonic acid], > 90 µM. Same read-out and setting: to `Cc1ccc(S)cc1` [4-Thiocresol] belongs > 90 µM; to `CC(=O)C(Cl)C(=O)N(C)C` (stereo not drawn) [2-Chloro-N,N-dimethyl-3-oxobutanamide], > 90 µM; to `CC(=O)OC[C@H]1O[C@@](COC(C)=O)(O[C@H]2O[C@H](COC(C)=O)[C@@H](OC(C)=O)[C@H](OC(C)=O)[C@H]2OC(C)=O)[C@@H](OC(C)=O)[C@@H]1OC(C)=O` [Sucrose octaacetate], > 70 µM.

Consider `COc1ccc2c(c1)[C@]13CCCC[C@@H]1[C@H](C2)N(C)CC3` [Dextromethorphan hydrobromide monohydrate], for which the half-maximal cytotoxic concentration (CC50) at 24 h (AC50 (uM) modified / 1000, Tox21_110001=Tox21_110766, viability, 1 nM T3 present, 24 h) was > 50 µM.

As for `CCCCCCCCCCCCOCC1CO1` (stereo not drawn) [Dodecyl glycidyl ether], under “AC50 (uM) modified / 1000”, the CC50 at 24 h is > 90 µM. Turning to `CC1(CO)CN(c2ccccc2)NC1=O` (stereo not drawn) [4-(Hydroxymethyl)-4-methyl-1-phenylpyrazolidin-3-one], the CC50 at 24 h (AC50 (uM) modified / 1000) was > 90 µM. On to `O=C(COc1ccc(Cl)cc1)OCCNC12CC3CC(CC(C3)C1)C2` [Adafenoxate], for which the 50% cytotoxic concentration (CC50) at 24 h (AC50 (uM) modified / 1000) is > 50 µM. On the same count and under the same terms, then `C[Si](C)(CCCN)O[Si](C)(C)CCCN` [3,3'-(1,1,3,3-Tetramethyldisiloxane-1,3-diyl)dipropan-1-amine], with > 90 µM; and `O=S(=O)(O)c1cccc2c(S(=O)(=O)O)cccc12` [1,5-Naphthalenedisulfonic acid, disodium salt hydrate], with > 90 µM. Regarding `O=C(OCCN1CCCCC1)C(O)(c1ccccc1)c1ccccc1` [Piperilate hydrochloride], the CC50 at 24 h (AC50 (uM) modified / 1000) was > 50 µM. As for `CC(C)OC(=O)CCC(=O)OC(C)C` [Dipropan-2-yl butanedioate], for the setting “AC50 (uM) modified / 1000”, the cytotoxic concentration (CC50) at 24 h was > 90 µM. Turning to `O=C(Nc1ccc(O)cc1)c1ccccc1O` [Osalmid], where the note is “AC50 (uM) modified / 1000”, the half-maximal cytotoxic concentration (CC50) at 24 h was > 50 µM. As to `CC(C)NCC(O)COc1ccccc1-n1cccc1` (stereo not drawn) [Isamoltan], under “AC50 (uM) modified / 1000”, the CC50 at 24 h was > 50 µM. Consider `CC1=C(/C=C/C(C)=C/C=C/C(C)=C/C=O)C(C)(C)CCC1` [Retinal], for which the CC50 at 24 h (AC50 (uM) modified / 1000) was 12.4 µM. Same read-out and setting: to `COc1cc(Cl)c(OC)cc1N` [2,5-Dimethoxy-4-chloroaniline] belongs > 90 µM. As to `CCNc1nc(Cl)nc(NC(C)(C)C#N)n1` [Cyanazine], the CC50 at 24 h (AC50 (uM) modified / 1000, Tox21_110001=Tox21_201619, viability, 1 nM T3 present, 24 h) was > 90 µM. With `CO[Si](CCCn1c(=O)n(CCC[Si](OC)(OC)OC)c(=O)n(CCC[Si](OC)(OC)OC)c1=O)(OC)OC` [1,3,5-Tris[3-(trimethoxysilyl)propyl]-1,3,5-triazinane-2,4,6-trione], the CC50 at 24 h (AC50 (uM) modified / 1000) was > 70 µM. Still for that read-out and setting: then `CCCCNc1cc(C(=O)O)cc(S(N)(=O)=O)c1Oc1ccccc1` [Bumetanide], with > 20 µM; and `CCCc1ncc(C[n+]2ccccc2C)c(N)n1` [Amprolium hydrochloride], with > 20 µM. In the case of `NNS(=O)(=O)c1ccc(Oc2ccc(S(=O)(=O)NN)cc2)cc1` [4,4'-Oxybis(benzenesulfohydrazide)], under “AC50 (uM) modified / 1000”, the cytotoxic concentration (CC50) at 24 h is > 90 µM. For `NC1CCN(c2cccc(Cl)n2)CC1` [SR 57227A hydrochloride], the CC50 at 24 h (AC50 (uM) modified / 1000) turned out to be 24.7 µM.

With `CNC(=S)NC` [N,N'-Dimethylthiourea], the half-maximal cytotoxic concentration (CC50) at 24 h (AC50 (uM) modified / 1000) was > 90 µM. For the compound `O=NN1CCCCCC1` [N-Nitrosohexamethyleneimine], the CC50 at 24 h (AC50 (uM) modified / 1000) is > 90 µM. With `O=C(OCCOCCO)c1ccccc1Nc1cccc(C(F)(F)F)c1` [Etofenamate], the CC50 at 24 h (AC50 (uM) modified / 1000) was > 20 µM. Turning to `CCCC(C)=O` [2-Pentanone], where the note is “AC50 (uM) modified / 1000”, the CC50 at 24 h was > 90 µM. The same measure, in the same setting: then `COc1cnc(OC)n2nc(NS(=O)(=O)c3c(OCC(F)F)cccc3C(F)(F)F)nc12` [Penoxsulam], with > 90 µM. As to `C[N+]1(C)CCCCC1` [Mepiquat chloride], the CC50 at 24 h (AC50 (uM) modified / 1000) is > 90 µM. In the case of `Fc1ccc(Oc2ccnc3cc(Cl)cc(Cl)c23)cc1` [Quinoxyfen], where the note is “AC50 (uM) modified / 1000”, the 50% cytotoxic concentration (CC50) at 24 h was 74.9 µM. In other words, the double-digit micromolar range. On the same count and under the same terms, then `COC1=CC(=O)O[C@@H](/C=C/c2ccc3c(c2)OCO3)C1` [Methysticin], with > 90 µM; and `CCCCCc1cccc(=O)o1` [6-Pentyl-2H-pyran-2-one], with > 90 µM.

Take `ClCCCCCCCl` [1,6-Dichlorohexane]: the CC50 at 24 h (AC50 (uM) modified / 1000, Tox21_110001=Tox21_302121, viability, 1 nM T3 present, 24 h) was > 90 µM. Take `OCCN1CCOCC1` [4-(2-Hydroxyethyl)morpholine]: the CC50 at 24 h (AC50 (uM) modified / 1000) was > 90 µM. For the compound `Cc1onc(-c2c(Cl)cccc2Cl)c1C(=O)N[C@@H]1C(=O)N2[C@@H]1SC(C)(C)[C@@H]2C(=O)O` [Dicloxacillin sodium salt monohydrate], the CC50 at 24 h (AC50 (uM) modified / 1000) was > 50 µM. In the case of `CC1(C)CO[C@@H](CC(=O)O)CN1` [SCH 50911], the CC50 at 24 h (AC50 (uM) modified / 1000) was > 50 µM. Turning to `CC(C)(CO)[C@@H](O)C(=O)NCCC(=O)O` [Calcium pantothenate], the CC50 at 24 h (AC50 (uM) modified / 1000) is > 50 µM.

`COc1cc(C(C)C)c2c(c1)S(=O)(=O)N(COc1cc(=O)n3cccc(OCCN4CCCCC4)c3n1)C2=O` [SSR69071] gave a CC50 at 24 h (AC50 (uM) modified / 1000) of 11.9 µM. Consider `CCC1(C)CC(=O)NC(=O)C1` [Bemegride], for which the CC50 at 24 h (AC50 (uM) modified / 1000, Tox21_110001=Tox21_110352, viability, 1 nM T3 present, 24 h) is > 20 µM. In turn, `CC(=O)NNc1ccccc1` [1-Acetyl-2-phenylhydrazine] registered a CC50 at 24 h (AC50 (uM) modified / 1000, Tox21_110001=Tox21_200069, viability, 1 nM T3 present, 24 h) of 7.15 µM.
